Calls of active or inactive are those of the source. The rule behind the calls is not given here.
Tests used:
HepG2 = test: Antiproliferative activity against human HepG2 cells by MTT assay; format: functional, cell-based
A549 [1] = test: Cell cycle arrest in human A549 cells assessed as accumulation at G2/M phase at 10 uM by propidium iodide staining based flow cytometric analysis (reference value: 12.77 +/- 1.55%); format: functional
A549 [2] = test: Induction of apoptosis in human A549 cells assessed as late apoptotic cells at 10 uM after 48 hrs by Annexin-V/Propidium iodide dual staining based flow cytometric analysis (reference value: 1.44 +/- 0.43%); format: functional
A549 [3] = test: Antiproliferative activity against human A549 cells by MTT assay; format: functional, cell-based
A549 [4] = test: Cell cycle arrest in human A549 cells assessed as accumulation at S phase at 10 uM by propidium iodide staining based flow cytometric analysis (reference value: 23.41 +/- 2.19%); format: functional
A549 [5] = test: Induction of apoptosis in human A549 cells assessed as viable cells at 10 uM after 6 hrs by Annexin-V-FITC/Propidium iodide staining based flow cytometric analysis (reference value: 95.48 +/- 2.03%); format: functional; settings: A549, 6 h, read-out: Activity
A549 [6] = test: Induction of apoptosis in human A549 cells assessed as necrotic cells at 10 uM after 48 hrs by Annexin-V/Propidium iodide dual staining based flow cytometric analysis (reference value: 2.57 +/- 0.39%); format: functional
A549 [7] = test: Induction of apoptosis in human A549 cells assessed as viable cells at 10 uM after 48 hrs by Annexin-V-FITC/Propidium iodide staining based flow cytometric analysis (reference value: 92.46 +/- 4.23%); format: functional; settings: A549, 48 h, read-out: Activity
A549 [8] = test: Cell cycle arrest in human A549 cells assessed as accumulation at G0/G1 phase at 10 uM by propidium iodide staining based flow cytometric analysis (reference value: 63.82 +/- 2.66%); format: functional
A549 [9] = test: Induction of apoptosis in human A549 cells assessed as upregulation of caspase-3 expression at 10 uM after 48 hrs by Western blot analysis; format: functional, cell-based
A549 [10] = test: Induction of apoptosis in human A549 cells assessed as increase in ROS production at 10 uM after 12 hrs by DCF staining based luminescence spectrometric analysis; format: functional, cell-based
A549 [11] = test: Induction of apoptosis in human A549 cells assessed as late apoptotic cells at 10 uM after 6 hrs by Annexin-V-FITC/Propidium iodide staining based flow cytometric analysis (reference value: 0.41 +/- 0.19%); format: functional
A549 [12] = test: Induction of apoptosis in human A549 cells assessed as upregulation of Bax expression at 10 uM after 48 hrs by Western blot analysis; format: functional, cell-based
A549 [13] = test: Induction of apoptosis in human A549 cells assessed as upregulation of caspase-8 expression at 10 uM after 48 hrs by Western blot analysis; format: functional, cell-based
A549 [14] = test: Induction of apoptosis in human A549 cells assessed as necrotic cells at 10 uM after 6 hrs by Annexin-V-FITC/Propidium iodide staining based flow cytometric analysis (reference value: 0.28 +/- 0.09%); format: functional
[15] = target: RAF proto-oncogene serine/threonine-protein kinase (Homo sapiens) (UniProt P04049); settings: A549, 10 uM
Description: Inhibition of C-Raf in human A549 cells at 10 uM after 48 hrs by Western blot analysis

A549 [16] = test: Induction of apoptosis in human A549 cells assessed as early apoptotic cells at 10 uM after 6 hrs by Annexin-V-FITC/Propidium iodide staining based flow cytometric analysis (reference value: 3.83 +/- 0.49%); format: functional
A549 [17] = test: Induction of apoptosis in human A549 cells assessed as downregulation of Bcl-2 expression at 10 uM after 48 hrs by Western blot analysis; format: functional, cell-based
A549 [18] = test: Induction of apoptosis in human A549 cells assessed as early apoptotic cells at 10 uM after 48 hrs by Annexin-V/Propidium iodide dual staining based flow cytometric analysis (reference value: 3.53 +/- 0.89%); format: functional
[19] = Antiproliferative activity against human MGC803 cells by MTT assay; format: functional, cell-based; settings: MGC-803

RAF proto-oncogene serine/threonine-protein kinase (Homo sapiens), sequence (P04049 whole entry): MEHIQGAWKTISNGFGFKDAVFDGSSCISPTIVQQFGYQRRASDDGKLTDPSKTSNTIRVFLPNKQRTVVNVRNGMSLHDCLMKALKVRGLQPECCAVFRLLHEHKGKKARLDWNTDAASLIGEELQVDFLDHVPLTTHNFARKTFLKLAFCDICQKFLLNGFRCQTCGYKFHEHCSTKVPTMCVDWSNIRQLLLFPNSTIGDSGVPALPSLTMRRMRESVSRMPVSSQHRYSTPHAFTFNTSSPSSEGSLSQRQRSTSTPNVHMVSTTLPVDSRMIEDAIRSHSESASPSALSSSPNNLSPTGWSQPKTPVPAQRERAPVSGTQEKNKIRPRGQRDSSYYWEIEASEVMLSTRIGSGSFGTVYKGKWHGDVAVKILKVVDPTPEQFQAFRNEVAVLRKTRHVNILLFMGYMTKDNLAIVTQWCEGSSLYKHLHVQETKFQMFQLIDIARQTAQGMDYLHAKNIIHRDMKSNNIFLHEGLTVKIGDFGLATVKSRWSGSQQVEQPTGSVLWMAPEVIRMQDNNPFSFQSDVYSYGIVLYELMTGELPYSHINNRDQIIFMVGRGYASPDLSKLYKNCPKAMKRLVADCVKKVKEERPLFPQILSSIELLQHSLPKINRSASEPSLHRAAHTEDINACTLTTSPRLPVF

| SMILES | IC50 (HepG2) [µM] | IC50 (A549 [3]) [µM] | IC50 [19] [µM] | other results |
| --- | --- | --- | --- | --- |
| CNC(=O)c1cc(Oc2ccc(NC(=O)Nc3ccc(Cl)c(C(F)(F)F)c3)cc2)ccn1 [SORAFENIB] | 9.14 | 13.6 | 7.99 | Activity (A549 [1]): 3.93%; Activity (A549 [2]): 6.38%; Activity (A549 [4]): 5.79%; viability at 10 µM (A549 [5]): 83.7%; Activity (A549 [6]): 19.9%; viability at 10 µM (A549 [7]): 72.8%; Activity (A549 [8]): 90.27%; Activity (A549 [9]): Active; Activity (A549 [10]): Active; Activity (A549 [11]): 6.23%; Activity (A549 [12]): Active; Activity (A549 [13]): Active; Activity (A549 [14]): 0.7%; inhibition [15]: Active; Activity (A549 [16]): 9.33%; Activity (A549 [17]): Active; Activity (A549 [18]): 0.9% |
| COc1cc2ncnc(Nc3ccc(F)c(Cl)c3)c2cc1OCCCN1CCOCC1 [GEFITINIB] |  |  |  | Activity (A549 [1]): 4.04%; Activity (A549 [2]): 4.92%; Activity (A549 [4]): 3.61%; viability at 10 µM (A549 [5]): 88%; Activity (A549 [6]): 11%; viability at 10 µM (A549 [7]): 83.1%; Activity (A549 [8]): 92.35%; Activity (A549 [9]): Active; Activity (A549 [10]): Active; Activity (A549 [11]): 5.27%; Activity (A549 [13]): Active; Activity (A549 [14]): 0.94%; Activity (A549 [16]): 5.81%; Activity (A549 [18]): 1% |
| CC(C)(C)c1ccc(NC(=O)Nc2cccc(CNc3ncnc4ccccc34)c2)cc1 | 16.9 | 17.9 | 7.47 |  |
| COc1cc2ncnc(NCc3cccc(NC(=O)Nc4ccc(C)cc4)c3)c2cc1OC | > 50 | 12.9 | 34.2 |  |
| COc1cc2ncnc(NCc3cccc(NC(=O)Nc4cccc(Cl)c4)c3)c2cc1OC | 35.9 | 22.7 | > 50 |  |
| COC(=O)c1ccccc1NC(=O)Nc1cccc(CNc2ncnc3cc(OC)c(OC)cc23)c1 | 31.6 | 29.3 | 8.98 |  |
| O=C(Nc1cccc(CNc2ncnc3ccccc23)c1)Nc1cccc(C(F)(F)F)c1 | 40 | 44.2 | > 50 |  |
| COc1cc2ncnc(NCc3cccc(NC(=O)Nc4ccc([N+](=O)[O-])cc4)c3)c2cc1OC | 18.8 | > 50 | 8.12 |  |
| O=C(Nc1cccc(Cl)c1)Nc1cccc(CNc2ncnc3ccccc23)c1 | > 50 | > 50 | 19.2 |  |
| COc1ccccc1NC(=O)Nc1cccc(CNc2ncnc3ccccc23)c1 | 17.4 | 30.8 | 39.3 |  |
| COc1ccc(NC(=O)Nc2cccc(CNc3ncnc4cc(OC)c(OC)cc34)c2)cc1 | > 50 | 24.5 | 12.3 |  |
| O=C(Nc1cccc(CNc2ncnc3ccccc23)c1)Nc1ccccc1Cl | > 50 | 18 | > 50 |  |
| COc1cc2ncnc(NCc3cccc(NC(=O)Nc4ccccc4Cl)c3)c2cc1OC | 25.5 | 15.2 | 30.2 |  |
| Cc1ccccc1NC(=O)Nc1cccc(CNc2ncnc3ccccc23)c1 | > 50 | 40.2 | > 50 |  |
| COc1ccc(NC(=O)Nc2cccc(CNc3ncnc4ccccc34)c2)cc1 | > 50 | 29.3 | 27.3 |  |
